Measurements reported in US5691372A, “Oxygenated-Heterocycle containing sulfonamide inhibitors of aspartyl protease” (Vertex Pharmaceuticals Incorporated, priority 1995, dated 1997).

How the values were obtained:
[1] = target: HIV-1 protease (Human immunodeficiency virus type 1 group M subtype B, UniProt P04585); assay: inhibition constants against HIV-1 protease (method of Pennington et al.); assay type: biochemical
Text: We have measured the inhibition constants of each compound against HIV-1 protease using the method described essentially by M. W. Pennington et al., Peptides 1990, Gimet, E. and D. Andrew, Eds., Escom; Leiden, Netherlands (1990).
We measured the inhibition constants of the compounds listed in Table II against HIV-1 protease using the above-cited method of Pennington et al.

[2] = system: HIVIIIb in CCRM-CEM cells; assay: anti-viral potency in CCRM-CEM cells acutely infected with HIVIIIb, extracellular p24 antigen (method of Meek et al.); assay type: cell-based, HIV-1; CD4+ human T-cell lymphoma cells; conditions: Human immunodeficiency virus 1
Description: Compounds of formula I were tested for their antiviral potency in several virological assays. In the first assay, the compounds were added as a solution in dimethylsulfoxide (DMSO) to a test cell culture of CCRM-CEM cells, a strain of CD4^+ human T-cell lymphoma cells, previously acutely infected with […] using standard protocols (see Meek, T. D. et al., "Inhibition of HIV-1 protease in infected T-lymphocytes by synthetic peptide analogues", Nature, 343, p. 90 (1990). Preferred compounds are those which are able to inhibit 90% of viral infectivity at a concentration of 1 μM or less. More preferred compounds are those which are able to inhibit 90% of viral infectivity at a concentration of 100 nM or less. The effect of the compounds on inhibiting the replication of the virus was measured by determining the HIV extracellular p24 antigen concentration using a commercial enzyme immunoassay (obtained from Coulter Corporation, Hialeah, Fla.). […] Ki and IC90 values are expressed in nM. The designation "ND" is used where a given compound was not tested.

SMILES | Ki [1] [pM] | IC90 [2] [pM]
CC1(OC(=O)N[C@@H](Cc2ccccc2)[C@H](O)CN(CC2CCCC2)S(=O)(=O)c2cccc(N)c2)CCOC1 (stereo partly drawn) [Compound 15, 3-Amino-N-cyclopentylmethyl-N-((2 syn, 3S)-2-hydroxy-4-phenyl-3-(3-methyltetrahydrofuran-3-yl)oxycarbonylamino)butyl-benzenesulfonamide] | 400 | –
Nc1ccc(S(=O)(=O)N(CC2CCCC2)C[C@@H](O)[C@H](Cc2ccccc2)NC(=O)OC2COCOC2)cc1 [Compound 3, 4-Amino-N-cyclopentylmethyl-N-((2 syn, 3S)-2-hydroxy-4-phenyl-3-(1,3-dioxan-5-yl-oxycarbonylamino))butyl-benzenesulfonamide] | 100 | 4000
CC(C)CN(C[C@@H](O)[C@H](Cc1ccccc1)NC(=O)OC1COCOC1)S(=O)(=O)c1ccc(N)cc1 [Compound 4, 4-Amino-N-((2 syn, 3S)-2-hydroxy-4-phenyl-3-1,3-dioxan-5-yl-oxycarbonylamino)butyl-N-isobutyl-benzenesulfonamide] | 300 | 12000
CC(C)CN(C[C@@H](O)[C@H](Cc1ccccc1)NC(=O)OC1COCOC1)S(=O)(=O)c1cccc(N)c1 [Compound 5, 3-Amino-N-((2 syn, 3S)-2-hydroxy-4-phenyl-3-1,3-dioxan-5-yl-oxycarbonylamino)butyl-N-isobutyl-benzenesulfonamide] | 150 | 7000
CC(C)CN(C[C@@H](O)[C@H](Cc1ccccc1)NC(=O)OC1(C)CCOC1)S(=O)(=O)c1cccc(N)c1 (stereo partly drawn) [Compound 16, 3-Amino-N-((2 syn, 3S)-2-hydroxy-4-phenyl-3-(3-methyltetrahydrofuran-3-yl)oxycarbonylamino)butyl-N-isobutyl-benzenesulfonamide] | 1500 | –
Nc1cccc(S(=O)(=O)N(CC2CCCC2)C[C@@H](O)[C@H](Cc2ccccc2)NC(=O)OC2COCOC2)c1 [Compound 6, 3-Amino-N-cyclopentylmethyl-N-((2 syn, 3S)-2-hydroxy-4-phenyl-3-(1,3-dioxan-5-yl-oxycarbonylamino))butyl-benzenesulfonamide] | < 100 | 5000
COc1ccc(S(=O)(=O)N(CC2CCCC2)C[C@@H](O)[C@H](Cc2ccccc2)NC(=O)OCC2COCO2)cc1 (stereo partly drawn) [Compound 2, N-Cyclopentylmethyl-N-((2 syn, 3S)-2-hydroxy-4-phenyl-3-(1,3-dioxolan-4-yl-methoxycarbonylamino))butyl-4-methoxy-benzenesulfonamide] | 300 | –
CC(=O)Nc1ccc(S(=O)(=O)N(C)C[C@@H](O)[C@H](Cc2ccccc2)NC(=O)OC2COC3OCCCC23)cc1 (stereo partly drawn) [Compound 11, 4-Acetamido-N-((2 syn, 3S)-2-hydroxy-4-phenyl-3-tetrahydropyrano-[2,3-b]tetrahydrofuran-4-yloxycarbonylamino)butyl-N-methyl-benzenesulfonamide] | 160000 | –
CC(C)CN(C[C@@H](O)[C@H](Cc1ccccc1)NC(=O)OC1COC2OCCCC12)S(=O)(=O)c1cccc(N)c1 (single isomer, unassigned) [Compound 10] | < 100 | –

Second part, the compound after the results:

Ki [1] [pM] | IC90 [2] [pM] | SMILES
1500 | – | CC(C)C[C@H](NC(=O)OC1COC2OCCCC12)[C@H](O)CN(CC1CCCCC1)S(=O)(=O)c1cccc(N)c1 (stereo partly shown) [Compound 12]
< 100 | – | Nc1cccc(S(=O)(=O)N(CC2CCCC2)C[C@@H](O)[C@H](Cc2ccccc2)NC(=O)OC2COC3OCCCC23)c1 (single isomer, unassigned) [Compound 7]
< 100 | – | Nc1cccc(S(=O)(=O)N(CC2CCCC2)C[C@@H](O)[C@H](Cc2ccccc2)NC(=O)OC2COC3OCCCC23)c1 (single isomer, unassigned) [Compound 8]
< 100 | 5000 | COc1ccc(S(=O)(=O)N(CC2CCCC2)C[C@@H](O)[C@H](Cc2ccccc2)NC(=O)OC2COCOC2)cc1 [Compound 1, N-Cyclopentylmethyl-N-((2 syn, 3S)-2-hydroxy-4-phenyl-3-(1,3-dioxan-5-yl-oxycarbonylamino))butyl-4-methoxy-benzenesulfonamide]
100 | – | CC(C)CN(C[C@@H](O)[C@H](Cc1ccccc1)NC(=O)OC1COC2OCCCC12)S(=O)(=O)c1cccc(N)c1 (single isomer, unassigned) [Compound 9]
